Where a name gives a salt, the structure may show the parent alone.
Biological target: SARS-CoV-2 Mac1 (Severe acute respiratory syndrome coronavirus 2, UniProt P0DTD1)
Assay: biochemical
Conditions: for inhibition at 100 µM: read-out: %inhibition; for %inhibition: 100 µM, inhibitor

Structure (SMILES)	inhibition at 100 µM [%]	%inhibition [%]
COc1cc(N)c(Cl)cc1C(=O)N[C@@H]1CCN(CCCOc2ccc(F)cc2)C[C@@H]1OC [Cisapride]	1.02	
CO[C@H]1C[C@H](O[C@@H]2/C(C)=C/C[C@@H]3C[C@@H](C[C@]4(CC[C@H](C)[C@@H](C5CCCCC5)O4)O3)OC(=O)[C@@H]3C=C(C)/C(=N/O)[C@H]4OC/C(=C\C=C\[C@@H]2C)[C@]43O)O[C@@H](C)[C@@H]1O [Selamectin]	13.4	
CO[C@@H]1[C@H](OC(=O)/C=C/C=C/C=C/C=C/C(=O)O)CC[C@]2(CO2)[C@H]1[C@@]1(C)O[C@@H]1CC=C(C)C [Fumagillin]	23.6	
Nc1ccc(S(=O)(=O)Nc2ncccn2)cc1 [Sodium sulfadiazine]		0
COC(=O)Nc1nc2cc(C(=O)c3ccc(F)cc3)ccc2[nH]1 [Flubendazole]	4.36	
CC(C)[C@@H]1CC[C@@H](C)C[C@H]1O [(-)-Menthol]	0	
Oc1c(Cl)cc(Cl)cc1Sc1cc(Cl)cc(Cl)c1O [Bithionol]	0	
CC(=O)O[C@]1(C(C)=O)CC[C@H]2[C@@H]3C=C(Cl)C4=CC(=O)CC[C@]4(C)[C@H]3CC[C@@]21C [Chlormadinone acetate]	0	
CCCCN1CCCC[C@H]1C(=O)Nc1c(C)cccc1C [Levobupivacaine HCl]	0	
C1CNCCN1 [Piperazine]	5.65	
Cn1c(COP(=O)(NCCBr)NCCBr)cnc1[N+](=O)[O-] [Evofosfamide (TH-302)]	12.7	
CNC[C@H](O)[C@@H](O)[C@H](O)[C@H](O)CO [Meglumine]	15.6	
C[C@H](CSC(=O)c1ccccc1)C(=O)N1C[C@@H](Sc2ccccc2)C[C@H]1C(=O)O [Zofenopril calcium]	10.7	
CN(C)Cc1ccc(S(=O)(=O)n2ccc(/C=C/C(=O)NO)c2)cc1 [Resminostat]	18.5	
c1ccc2c(c1)CCCC2C1=NCCN1 (stereo not shown) [Tetrahydrozoline HCl]	0	
Cc1nc(=O)c2cc(CN(C)c3ccc(C(=O)N[C@@H](CCC(=O)O)C(=O)O)s3)ccc2[nH]1 [Raltitrexed]	24.8	
CCOCCn1c(N2CCCN(C)CC2)nc2ccccc21 [Emedastine Difumarate]		0.198
CO[C@H]1C[C@@H]2CC[C@@H](C)[C@@](O)(O2)C(=O)C(=O)N2CCCC[C@H]2C(=O)O[C@H]([C@H](C)C[C@@H]2CC[C@@H](O)[C@H](OC)C2)CC(=O)[C@H](C)/C=C(\C)[C@@H](O)[C@@H](OC)C(=O)[C@H](C)C[C@H](C)/C=C/C=C/C=C/1C [Rapamycin (Sirolimus)]	30.7	
Cc1cc(S(=O)(=O)O)c2c(C)ccc(C(C)C)cc1-2 [Sodium gualenate]	12.6	
Cc1cc(Nc2ncc(Cl)c(Nc3ccccc3S(=O)(=O)C(C)C)n2)c(OC(C)C)cc1C1CCNCC1 [Ceritinib (LDK378)]	0	

Structure (SMILES)	inhibition at 100 µM [%]	%inhibition [%]
NNC(=O)c1ccncc1 [Isoniazid]	24.4	
CCOC(=O)c1ncn2c1CN(C)C(=O)c1cc(F)ccc1-2 [Flumazenil]	5.44	
O=C(O)O [Sodium carbonate]	0.406	
CN(C)CCC(c1ccccc1)c1ccccn1 (stereo not shown) [Pheniramine Maleate]	9.19	
CC(=O)NC1CCSC1=O (stereo not shown) [Citiolone]	0	
O=C1c2c(O)cccc2Cc2cccc(O)c21 [Dithranol]	18.7	
COc1c(N2C[C@@H]3CCCN[C@@H]3C2)c(F)cc2c(=O)c(C(=O)O)cn(C3CC3)c12 [Moxifloxacin]		6.66
Fc1ccc([C@@H]2CCNC[C@H]2COc2ccc3c(c2)OCO3)cc1 [Paroxetine mesylate]		0
CS(=O)(=O)N1CCN(Cc2cc3nc(-c4cccc5[nH]ncc45)nc(N4CCOCC4)c3s2)CC1 [Pictilisib (GDC-0941)]	10.2	
CC(=O)NCCCS(=O)(=O)O [Acamprosate Calcium]	0	
CO[C@@]1(NC(=O)CSCC#N)C(=O)N2C(C(=O)O)=C(CSc3nnnn3C)CS[C@@H]21 [Cefmetazole sodium]	8.58	
Clc1ccc(C(OCCN2CCCCC2)c2ccccc2)cc1 (stereo not shown) [Cloperastine hydrochloride]	5.64	
Cc1noc(NS(=O)(=O)c2ccc(N)cc2)c1C [Sulfisoxazole]	20.4	
CCOC(=O)[C@H](CCc1ccccc1)N[C@@H](C)C(=O)N1C(=O)N(C)C[C@H]1C(=O)O [Imidapril HCl]	0	
CCCCOc1ccc(OCCCN2CCOCC2)cc1 [Pramoxine HCl]	25.7	
CCN(C)C(=O)Oc1cccc([C@H](C)N(C)C)c1 [Rivastigmine Tartrate]		0.5521
CC(=O)NS(=O)(=O)c1ccc(N)cc1 [Sulfacetamide sodium salt hydrate]		8.356
CCOC(N)=O [Urethane]	0	
O=C[C@H](O)[C@@H](O)[C@H](O)CO [Xylose]	0	
CN1C(C)(C)CCCC1(C)C [Pempidine]	28.2	

Structure (SMILES)	inhibition at 100 µM [%]	%inhibition [%]
CC(C(=O)O)c1ccc2c(c1)Cc1cccnc1O2 (stereo not shown) [Pranoprofen]	17.8	
O=C1OCCN1/N=C/c1ccc([N+](=O)[O-])o1 [Furazolidone]	0	
CC(C)(C)C(=O)C(Oc1ccc(Cl)cc1)n1ccnc1 (stereo not shown) [Climbazole]	18.5	
CCCC(CCC)C(=O)O [Valproic acid sodium salt (Sodium valproate)]		16.22
OCCOCCN1CCN(C(c2ccccc2)c2ccc(Cl)cc2)CC1 (stereo not shown) [Hydroxyzine 2HCl]	11.4	
CCOC(=O)CC(=O)N1CCSC1COc1ccccc1OC (stereo not shown) [Moguisteine]	13	
COc1cc(NC(C)CCCN)c2ncccc2c1 (stereo not shown) [Primaquine Diphosphate]	5.42	
COc1ccnc(C[S+]([O-])c2nc3cc(OC(F)F)ccc3[nH]2)c1OC (stereo not shown) [Pantoprazole sodium]		0
Cc1ccc(-n2nc(C(C)(C)C)cc2NC(=O)Nc2ccc(OCCN3CCOCC3)c3ccccc23)cc1 [Doramapimod (BIRB 796)]	0	
C=C[C@@H]1C[C@]1(NC(=O)[C@@H]1C[C@@H]2CN1C(=O)[C@H](C(C)(C)C)NC(=O)O[C@@H]1C[C@H]1CCCCCc1nc3ccc(OC)cc3nc1O2)C(=O)NS(=O)(=O)C1CC1 [Grazoprevir]	0	
COc1ncnc(NS(=O)(=O)c2ccc(N)cc2)c1OC [Sulfadoxine]	0	
COc1ccc2cc(CCC(C)=O)ccc2c1 [Nabumetone]	0	
C[C@@H](c1nc(-c2ccc(C#N)cc2)cs1)[C@](O)(Cn1cncn1)c1cc(F)ccc1F [Isavuconazole]	0	
O=c1cc[nH]c(=O)[nH]1 [Uracil]	0	
CCNC1(C(N)=O)CCN(c2ncnc3c2nc(-c2ccccc2Cl)n3-c2ccc(Cl)cc2)CC1 [Otenabant (CP-945598) HCl]	2.29	
CN(Cc1ccc(C(C)(C)C)cc1)Cc1cccc2ccccc12 [Butenafine HCl]	0	
CCOc1ccc(Cc2cc([C@@H]3O[C@H](CO)[C@@H](O)[C@H](O)[C@H]3O)ccc2Cl)cc1 [Dapagliflozin propanediol monohydrate]		0
CC1(C)OC(=O)NC1=O [5,5-Dimethyloxazolidine-2,4-dione]	0.163	

Reference: paper doi:[…]/2021.10.07.463234v2 (biorxiv, 2021)
